One assay addresses FimH (Escherichia coli, UniProt P08191). The assay is classed as binding. The note with it: competitive ELISA; for Concentration blocking FimH binding towards oligomannose glycans: RNAseB substrate. As to the method:
Journal of the American Society for Mass Spectrometry, 2009. […] Tested compounds were added to wells following with FimH treatment.
Plates were coated with 100 μl of 10 mg/ml solution of RNAse-B in 100 mM carbonate/bicarbonate buffer pH 9.6. […] 2 h. Then washed three times with 10 mM PBS containing 0.05% Tween-20. […] Wells were washed three times with 10 mM PBS+0.05% Tween-20. 100 μl of anti-body conjugated to horseradish peroxidase (1:5000) was added in buffer and incubated for 1 h at room temperature. Then washed three times with 10 mM PBS+0.05% Tween-20. Added 100 μl of TMB and incubated in dark for 2-5 min. The reaction was stopped with 100 μl/well 1N sulfuric acid. Plate absorbance was analyzed at 450 nm using microplate reader.

For assay [1], the system named is AIEC strain LF82 adhesion to T84 intestinal epithelial cells. The assay is described as follows: Adhesion assay on T84 cells with thiazolylaminomannosides (Example 22.3). Format: cell-based, Escherichia coli. The conditions noted are these: for Inhibitory effect on adhesion: 100 nM; for inhibition at 10 µM: Escherichia coli, Epithelial cell, read-out: Inhibition of adhesion. As to the method: T84 Intestinal Epithelial cells (overexpressing the receptor CEACAM6) were beforehand incubated for 1 h with the synthetic thiazolylaminomannosides 6-20 (examples 3-17) at different concentrations. Each compound was tested four times at concentrations of 0.1, 1, 10 and 100 μM.
The cells were then infected in the presence of inhibitory compounds by the AIEC strain of reference LF82 for 3 hours at a multiplicity of infection of 10 bacteria to a cell. After 3 h of incubation, the monolayer was washed and the number of AIEC bacteria associated with cells was counted. The level of adhesion of AIEC LF82 strain in the presence of inhibitors (residual adhesion) was expressed relatively to the level of adherence in the absence of any treatment (considered 100%) (FIG. 10).

Assay [2] has as its system CD-associated E. coli strain AIEC LF82. Description: Hemagglutination inhibition (HAI) with AIEC LF82, guinea pig erythrocytes. The assay is classed as cell-based, Escherichia coli. As to the method:
AIEC adhesion to the gut occurs through the binding of FimH adhesins to the mannosylated glycans of intestinal cells. This scenario was first mimicked here with the highly mannosylated glycocalyx of guinea pig erythrocytes.
A two-fold dilution series of the antagonists was added to wells containing guinea pig erythrocytes and AIEC LF82 bacteria. The formation of the cross-linked network (hemagglutination) due to the interaction of the E. coli FimH adhesins with the glycocalyx of the erythrocytes was prevented at a certain concentration of inhibitors. The lowest concentration at which hemagglutination is still inhibited is defined as the inhibition titer of the antagonist. HM was included in the assay to obtain a relative inhibitory concentration (rIC) for the antagonists by dividing the inhibitory concentration (IC) of the substance of interest by the value for HM. In fact, rICs are more accurate than rough inhibition titers to compare the potency of antagonists evaluated in different assays.

Assay [3] has as its system AIEC LF82 bacteria adhesion to T84 intestinal epithelial cells. Description: Adhesion assay on T84 cells, pre-, co- and post-incubation protocols (Example 21.2). Format: cell-based, Escherichia coli. The note with it: pre-incubation assay. On the procedure: E. coli strain LF82 was isolated from a chronic ileal lesion of a patient with Crohn's disease (CD). Bacteria were grown routinely in Luria-Bertani (LB) broth overnight at 37° C. Intestinal epithelial cells T84 derived from colonic adenocarcinoma were maintained in an atmosphere containing 5% CO2 at 37° C. in DMEM/F12 (50/50) medium supplemented with 10% (v/v) heat-inactivated fetal calf serum (FCS), 1% L-glutamine, 100 000 U·l^−1 penicillin, 100 mg·l^−1 streptomycin, 25 μg·l^−1 amphotericin B.
T84 were seeded in 48-well plates at a concentration of 1.5×10^5 cells per well and grown for 48 h. AIEC LF82 bacteria were incubated 1 h with each mannoside prior the cell infection (pre-incubation protocol) or they were added simultaneously onto the cells (co-incubation protocol) in complete medium without antibiotics, containing heat inactivated fetal calf serum (FCS). Heptyl-mannose or compound 2 (example 1) were tested at a dose of 100; 10; 1 or 0.1 μM. D-D-mannose was tested at a dose of 10 000; 1 000; 100 or 10 μM and compound 1 (example 2bis) was tested at a concentration of 500; 100; 10 or 1 μM. Cells were infected with AIEC LF82 bacteria at a multiplicity of infection (MOI) of 10 bacteria per cell for 3 h at 37° C. For the post-incubation protocol, mannosides were incubated with cells for 3 h after bacterial infection. A washing step was realized before this post-incubation to eliminate non-adherent bacteria. Monolayers were washed in phosphate-buffered saline (PBS; pH 7.2) and cells were then lysed with 1% Triton X-100 in deionized water. Samples were diluted and plated onto Luria Bertani agar plates to determine the number of colony-forming units (CFU) recovered from the lysed monolayers. Results were expressed as percentages of residual adhesion, considering adhesion level of AIEC LF82 without mannoside treatment as 100%.

Assay [4] relates to AIEC LF82 bacteria on colonic tissue from transgenic mice expressing human CEACAM6. The assay is described as follows: Ex-vivo adhesion assay on colonic tissue of CEABAC10 mice. The arrangement: species or system CEABAC10 transgenic mice. The conditions noted are these: 1 h. On the procedure: E. coli strain LF82 was isolated from a chronic ileal lesion of a patient with Crohn's disease (CD). Bacteria were grown routinely in Luria-Bertani (LB) broth overnight at 37° C.
Adhesion assay of AIEC LF82 bacteria were performed using colonic tissue from transgenic mice expressing the human CEACAM6 protein (C. H. Chan, C. P. Stanners “Novel mouse model for carcinoembryonic antigen-based therapy”, Mol Ther. 2004; 9, 775-785). Briefly, 10 to 12-week-old FVB/N CEABAC10 transgenic mice were anesthetized, euthanized by cervical dislocation and colons were removed. Colons were washed twice in phosphate buffer saline (PBS) and were segmented in 4 independent loops of ≈0.6 cm. A volume of 100 μL of LF82 bacteria at 2×10^6 bacteria/mL in PBS or of a mix of LF82 bacteria+D-mannose (1 μmol and 10 μmol) or compound 13 (0.1 μmol and 0.01 μmol) were injected into the loops. Loops were incubated 1 h at 37° C. in an atmosphere containing 5% of CO2, and then opened and washed 4 times in PBS. Tissues were homogenized, appropriately diluted and plated onto Luria-Bertani agar plates containing ampicillin (100 μg/mL) and erythromycin (20 μg/mL) to select AIEC LF82 bacteria.
Entire colons from CEABAC10 mice were collected and washed two times with PBS. The colon was divided in 4 isolated loops and 100 μL of a bacterial suspension containing […] bacteria/mL with or without inhibitory compounds were injected into the loops. D-mannose was tested at a dose of 1 and 10 μmol and monovalent 13 was tested at a dose of 0.01 and 0.1 μmol. After a 1 h-period of incubation, samples were extensively washed and homogenized to numerate adherent bacteria. Bacterial adhesion was expressed as percentages of residual adhesion (100% corresponds to the adhesion in absence of any compound).

Entries after “also recorded” stand apart in the source; their conditions may differ.

Chain of FimH (P08191 22-300): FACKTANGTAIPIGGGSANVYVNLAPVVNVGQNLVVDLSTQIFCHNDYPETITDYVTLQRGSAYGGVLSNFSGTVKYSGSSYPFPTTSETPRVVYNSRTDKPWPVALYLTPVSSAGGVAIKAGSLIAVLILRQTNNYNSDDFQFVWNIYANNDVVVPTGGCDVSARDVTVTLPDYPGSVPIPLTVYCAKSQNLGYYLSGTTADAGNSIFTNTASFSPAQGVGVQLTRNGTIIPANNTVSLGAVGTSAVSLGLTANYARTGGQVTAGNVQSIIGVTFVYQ

`Cc1ccc(C(=O)c2cnc(N[C@H]3O[C@H](CO)[C@@H](O)[C@H](O)[C@@H]3O)s2)cc1` [Compound 11, 2-(α-D-mannopyranosyl)amino-5-(4-methylbenzoyl)thiazole]: at FimH, the “Concentration blocking FimH binding towards oligomannose glycans” value is recorded as 50 nM.

In the case of `O=C(c1ccccc1)c1cnc(N[C@H]2O[C@H](CO)[C@@H](O)[C@H](O)[C@@H]2O)s1` [Compound 8, 2-(α-D-mannopyranosyl)amino-5-benzoylthiazole], at FimH, the “Level of inhibition compared to the HM reference” value is on record as “significantly higher level of inhibition” and the “Concentration blocking FimH binding towards oligomannose glycans” value is on record as 5 nM. In assay [1], the “Inhibitory effect on adhesion” value is recorded as “significant inhibitory effect”.

As for `N#Cc1ccc(C(=O)c2cnc(N[C@H]3O[C@H](CO)[C@@H](O)[C@H](O)[C@@H]3O)s2)cc1` [Compound 20, 2-(α-D-mannopyranosyl)amino-5-(4-cyanobenzoyl)thiazole], in assay [2], the “Inhibitory potency in HAI (in words)” value is given as “less potent than the unsubstituted phenyl analogue 8”.

For `O=C(c1cnc(N[C@H]2O[C@H](CO)[C@@H](O)[C@H](O)[C@@H]2O)s1)C(F)(F)F` [Compound 7, 2-(α-D-mannopyranosyl)amino-5-trifluoroacetylthiazole], the “Concentration blocking FimH binding towards oligomannose glycans” value at FimH was determined as 50 nM. Further, the “Inhibitory potency in HAI (in words)” value in assay [2] was “less potent than HM; also recorded: significantly less potent than 6”.

Take `O=C(c1ccncc1)c1cnc(N[C@H]2O[C@H](CO)[C@@H](O)[C@H](O)[C@@H]2O)s1` [Compound 17, 2-(α-D-mannopyranosyl)amino-5-isonicotinoylthiazole]: the inhibition at 10 µM in assay [1] was greater than 90%.

Turning to `O=C(c1cccs1)c1cnc(N[C@H]2OC(CO)[C@@H](O)[C@H](O)C2O)s1` (mixture of isomers) [Compound 14, 2-(α-D-mannopyranosyl)amino-5-(thiophene-2-carbonyl)thiazole], the “Concentration blocking FimH binding towards oligomannose glycans” value at FimH came to 50 nM.

Take `O=C(c1cnc(N[C@H]2OC(CO)[C@@H](O)C(O)C2O)s1)C12CC3CC(CC(C3)C1)C2` (stereo partly drawn) [Compound 16, 5-((3r,5r,7r)-adamantane-1-carbonyl)-2-(α-D-mannopyranosyl)aminothiazole]: the “Inhibitory potency in HAI (in words)” value in assay [2] was “significant improvement”. Further, the “Inhibitory effect on adhesion” value in assay [1] was “significant inhibitory effect”.

As for `OC[C@H]1O[C@H](O)[C@@H](O)[C@@H](O)[C@@H]1O` [D-mannose, α-D-mannose, reference compound], the “Concentration leading to decreased adhesion levels of at least 50%” value in assay [3] was 1000 µM. The compound further gave a Residual adhesion in assay [1] (1000 μM) of 51.6%. The Bacterial adhesion result in assay [4] (1 μmol) is on record as “no decrease”. Also, in assay [4] (dose of 10 μmol), the “Bacterial adhesion (residual)” value is reported as 41%.

On to `CC(C)(C)C(=O)c1cnc(N[C@H]2OC(CO)[C@@H](O)C(O)C2O)s1` (stereo partly drawn) [Compound 9, 2-(α-D-mannopyranosyl)amin-5-tert-butylcarbonylthiazole], for which the “Concentration blocking FimH binding towards oligomannose glycans” value at FimH was found to be 50 nM.

Take `O=C(c1ccsc1)c1cnc(N[C@H]2OC(CO)[C@@H](O)[C@H](O)C2O)s1` (mixture of isomers) [Compound 12, 2-(α-D-mannopyranosyl)amino-5-(thiophene-3-carbonyl)thiazole]: at FimH, the “Concentration blocking FimH binding towards oligomannose glycans” value worked out at 50 nM.

As for `O=C(c1ccc(Br)cc1)c1cnc(N[C@H]2O[C@H](CO)[C@@H](O)[C@H](O)[C@@H]2O)s1` [Compound 19, 2-(α-D-mannopyranosyl)amino-5-(4-bromobenzoyl)thiazole], in assay [1], the inhibition at 10 µM is greater than 90%.

For `O=C(c1ccc([N+](=O)[O-])cc1)c1cnc(N[C@H]2O[C@H](CO)[C@@H](O)[C@H](O)[C@@H]2O)s1` [Compound 10, 2-(α-D-mannopyranosyl)amino-5-(4-nitrobenzoyl)thiazole], in assay [2], the “Inhibitory potency in HAI (in words)” value is reported as “less potent than the unsubstituted phenyl analogue 8”. Further, in assay [1], the “Inhibitory effect on adhesion” value is listed as “significant inhibitory effect” and the inhibition at 10 µM is greater than 90%.

For the origin of these results see patent US10273313B2, “Multimeric mannosides, a process for preparing the same and their uses as a drug” (CENTRE NATIONAL DE LA RECHERCHE SCIENTIFIQUE, priority 2012, dated 2019).
